Measured values reported in patent publication US10703748B2, “Diazanaphthalen-3-yl carboxamides and preparation and use thereof” (Samumed, LLC, priority 2017, dated 2020).
pEC50: −log10 of the molar value.

Legend:
DYRK1A kinase = DYRK1A kinase (Homo sapiens, UniProt Q13627); test: DYRK1A kinase activity (Ser/Thr 18 peptide Z-lyte FRET assay); type: biochemical; conditions: recombinant DYRK1A, 30 μM ATP, one hour at room temperature;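 also: kinase activity read as coumarin/fluorescein emission ratio after development step, with unphosphorylated and phosphorylated peptide forms setting 0% and 100% controls, values from dose-response curves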
[1] = system: Wnt-responsive Sp5-Luc reporter in SW480 colon carcinoma cells; test: Screening assay for Wnt activity (Sp5-Luc reporter gene assay); conditions: Homo sapiens; for pEC50: SW480
Protocol: The screening assay for Wnt activity is described as follows.
SW480 colon carcinoma cells were transduced with a lentiviral vector expressing luciferase with a human Sp5 promoter consisting of a sequence of eight TCF/LEF binding sites. […] These stably transduced SW480 cells were expanded in cell culture and used for all further screening activities. Each compound was dissolved in DMSO as a 10 mM stock and used to prepare compound source plates. Serial dilution (1:3, 10-point dose-response curves starting from 10 μM) and compound transfer was performed using the ECHO 550 (Labcyte, Sunnyvale, Calif.) into 384-well white solid bottom assay plates (Greiner Bio-One) with appropriate DMSO backfill for a final DMSO concentration of 0.1%. […] Following incubation, 15 μl of BriteLite Plus luminescence reagent (Perkin Elmer) was added to each well of the 384-well assay plates. The plates were placed on an orbital shaker for 2 min and then luminescence was quantified using the Envision (Perkin Elmer) plate reader.

GSK3β kinase = GSK3β kinase (Homo sapiens, UniProt P49841); test: GSK3β kinase activity (Ser/Thr 09 peptide Z-lyte FRET assay); type: biochemical; conditions: recombinant kinase, 46 μM ATP, one hour at room temperature; read-out: EC50
Chain of GSK3β kinase (P49841 whole entry): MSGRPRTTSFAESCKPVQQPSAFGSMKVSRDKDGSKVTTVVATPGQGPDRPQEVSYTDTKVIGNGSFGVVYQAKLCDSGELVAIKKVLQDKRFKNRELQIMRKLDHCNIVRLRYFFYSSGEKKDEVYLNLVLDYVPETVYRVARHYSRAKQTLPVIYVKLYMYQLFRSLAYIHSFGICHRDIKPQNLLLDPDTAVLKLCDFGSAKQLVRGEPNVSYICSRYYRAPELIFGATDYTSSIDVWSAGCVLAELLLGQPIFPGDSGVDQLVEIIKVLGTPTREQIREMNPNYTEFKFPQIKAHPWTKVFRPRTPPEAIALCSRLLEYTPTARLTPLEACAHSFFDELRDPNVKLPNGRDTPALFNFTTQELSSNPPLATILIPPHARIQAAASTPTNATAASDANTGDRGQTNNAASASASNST
Protocol: Each compound is dissolved in DMSO as a 10 mM stock and used to prepare compound source plates. Serial dilution (1:3, 11-point dose-response curves from 10 μM to 0.0003 μM) and compound transfer was performed using the ECHO 550 (Labcyte, Sunnyvale, Calif.) into 1536-well black-walled round bottom plates (Corning).
This is a non-radioactive assay using fluorescence resonance energy transfer (FRET) between coumarin and fluorescein to detect kinase activity which is represented as ratio of coumarin emission/fluorescein emission.
The mixture is allowed to incubate with the representative compounds for one hour at room temperature. All reactions were performed in duplicate. Unphosphorylated (“0% Control”) and phosphorylated (“100% control”) forms of Ser/Thr 18 serve as control reactions.
After incubation, diluted Development Buffer is added to the reaction and allowed to further incubate for one hour at room temperature.
Dose-response curves are generated and inhibitory concentration (IC50) values are calculated using non-linear regression curve fit in the Dotmatics' Studies Software (Bishops Stortford, UK).

IL-6 = IL-6 inhibition in LPS-stimulated human peripheral blood mononuclear cells (HTRF); conditions: Homo sapiens, PBMC; for pEC50: 22 h; for inhibition at 10 µM: read-out: percentage in parentheses after EC50 >10
[2] = system: SW480 colon carcinoma cells; test: Cell viability assay (CellTiter-Glo); conditions: Homo sapiens; for pEC50: SW480, 96 h
[3] = system: secreted cytokines TNFα, IL-6 and KC-GRO; test: Secreted cytokines in Lipopolysaccharide-stimulated BV-2 cells (Table 9 does not say which cytokine); type: cell-based, mouse; conditions: Mus musculus, BV-2, 5 h; read-out: EC50
[4] = system: α-smooth muscle actin (aSMA) positive LL29 cells; test: Inhibition of the fibrotic process: αSMA staining in TGF-β1 treated LL29 fibroblasts from IPF patients; conditions: Homo sapiens, Fibroblast; for pEC50: 96 h; for inhibition at 10 µM: read-out: percentage in parentheses after EC50 >10
Protocol: Each compound was dissolved in DMSO as a 10 mM stock and used to prepare compound source plates. […] LL29 cells were plated at 1,500 cells/well in 70 μL/well F12 medium supplemented with 1% Fetal Bovine Serum. […] Wells treated with TGF-β1 and containing DMSO were used as positive control, and cells with only DMSO were negative control. Cells were incubated at 37° C. and 5% CO2 for 4 days. Following incubation for 4 days, SYTOX green nucleic acid stain (Life Technologies [Thermo Fisher Scientific]) was added to the wells at a final concentration of 1 μM and incubated at room temperature for 30 min. Cells were then fixed using 4% formaldehyde (Electron Microscopy Sciences), washed 3 times with PBS followed by blocking and permeabilization using 3% Bovine Serum Albumin (BSA; Sigma) and 0.3% Triton X-100 (Sigma) in PBS.

[5] = SW480, read-out: percent inhibition at 10 μM

| SMILES | pEC50 (DYRK1A kinase) | pEC50 [1] | pEC50 (GSK3β kinase) | pEC50 (IL-6) | pEC50 [2] | pEC50 [3] | inhibition at 10 µM (IL-6) [%] | pEC50 [4] | inhibition at 10 µM [4] [%] | inhibition at 10 µM [1, 5] [%] | inhibition at 10 µM [2, 5] [%] |
| --- | --- | --- | --- | --- | --- | --- | --- | --- | --- | --- | --- |
| CN(C)CCNc1cc(C(=O)Nc2ncc3ccc(-c4cnn(C)c4)cc3n2)ccn1 [Compound 1071, 2-((2-(Dimethylamino)ethyl)amino)-N-(7-(1-methyl-1H-pyrazol-4-yl)quinazolin-2-yl)isonicotinamide] | 8.00 | 5.82 | < 5.00 | < 5.00 | 5.46 | 5.74 | 11.8 | 5.16 | – | – | – |
| CN(C)Cc1ccc(C(=O)Nc2ncc3ccc(-c4cnn(C)c4)cc3n2)cc1 [Compound 1077, 4-((Dimethylamino)methyl)-N-(7-(1-methyl-1H-pyrazol-4-yl)quinazolin-2-yl)benzamide] | 7.80 | 5.96 | 5.38 | 5.04 | 5.47 | 6.69 | – | 5.41 | – | – | – |
| CN1CCc2ccc(C(=O)Nc3ncc4ccc(-c5cnn(C)c5)cc4n3)cc2C1 [Compound 1109, 2-Methyl-N-(7-(1-methyl-1H-pyrazol-4-yl)quinazolin-2-yl)-1,2,3,4-tetrahydroisoquinoline-7-carboxamide] | 7.74 | 5.72 | < 5.00 | < 5.00 | 5.02 | 6.46 | 6.3 | < 5.00 | 16.4 | – | – |
| CN1CCC(n2cc(C(=O)Nc3ncc4ccc(-c5cnn(C)c5)cc4n3)cn2)CC1 [Compound 1136, N-(7-(1-Methyl-1H-pyrazol-4-yl)quinazolin-2-yl)-1-(1-methylpiperidin-4-yl)-1H-pyrazole-4-carboxamide] | 7.89 | 6.49 | 5.60 | 5.50 | 5.54 | 6.26 | – | 5.84 | – | – | – |
| CN1CCN(c2cc(C(=O)Nc3ncc4ccc(-c5cnn(C)c5N)cc4n3)ccn2)CC1 [Compound 1210, N-(7-(5-Amino-1-methyl-1H-pyrazol-4-yl)quinazolin-2-yl)-2-(4-methylpiperazin-1-yl)isonicotinamide] | 8.40 | 6.32 | < 5.00 | 5.44 | 6.16 | 5.96 | – | 5.85 | – | – | – |
| Cn1ncc(-c2ccc3cnc(NC(=O)c4ccnc(N5CCOCC5)c4)nc3c2)c1CN1CCOCC1 [Compound 1220, N-(7-(1-Methyl-5-(morpholinomethyl)-1H-pyrazol-4-yl)quinazolin-2-yl)-2-morpholinoisonicotinamide] | 7.72 | 5.74 | 5.25 | < 5.00 | 5.28 | 6.06 | 0 | < 5.00 | 5.5 | – | – |
| CN1CCCN(c2cc(C(=O)Nc3ncc4ccc(-c5cn(C)nn5)cc4n3)ccn2)CC1 [Compound 1285, 2-(4-Methyl-1,4-diazepan-1-yl)-N-(7-(1-methyl-1H-1,2,3-triazol-4-yl)quinazolin-2-yl)isonicotinamide] | 7.89 | 5.78 | 6.08 | < 5.00 | 5.50 | 5.17 | 2.1 | < 5.00 | 5.5 | – | – |
| Cn1cnnc1-c1ccc2cnc(NC(=O)C3CCN(CCC(F)(F)F)CC3)nc2c1 [Compound 1297, N-(7-(4-Methyl-4H-1,2,4-triazol-3-yl)quinazolin-2-yl)-1-(3,3,3-trifluoropropyl)piperidine-4-carboxamide] | 7.24 | < 5.00 | 7.42 | < 5.00 | < 5.00 | ≤ 5.00 | 4.3 | < 5.00 | 42.1 | 39.2 | 35.1 |

Further compounds by rising pEC50 (DYRK1A kinase), results first:

| pEC50 (DYRK1A kinase) | pEC50 [1] | pEC50 (GSK3β kinase) | pEC50 (IL-6) | pEC50 [2] | pEC50 [3] | SMILES | inhibition at 10 µM (IL-6) [%] | pEC50 [4] | inhibition at 10 µM [4] [%] | inhibition at 10 µM [1, 5] [%] | inhibition at 10 µM [2, 5] [%] |
| --- | --- | --- | --- | --- | --- | --- | --- | --- | --- | --- | --- |
| 7.57 | 5.45 | < 5.00 | < 5.00 | 5.16 | 6.55 | Cn1cc(-c2ccc3cnc(NC(=O)c4ccnc(OC5CCNCC5)c4)nc3c2)cn1 [Compound 1060, N-(7-(1-Methyl-1H-pyrazol-4-yl)quinazolin-2-yl)-2-(piperidin-4-yloxy)isonicotinamide] | 4.9 | < 5.00 | 28.6 | – | – |
| 7.72 | 6.00 | 5.01 | < 5.00 | 5.47 | 5.85 | CN1CCN(Cc2cccc(C(=O)Nc3ncc4ccc(-c5cnn(C)c5)cc4n3)c2)CC1 [Compound 1079, N-(7-(1-Methyl-1H-pyrazol-4-yl)quinazolin-2-yl)-3-((4-methylpiperazin-1-yl)methyl)benzamide] | 12.7 | < 5.00 | 14.3 | – | – |
| 7.82 | 6.10 | < 5.00 | < 5.00 | 5.52 | 6.02 | Cn1cc(-c2ccc3cnc(NC(=O)c4ccc5ccoc5c4)nc3c2)cn1 [Compound 1116, N-(7-(1-Methyl-1H-pyrazol-4-yl)quinazolin-2-yl)benzofuran-6-carboxamide] | 3.8 | 5.57 | – | – | – |
| 7.89 | 5.71 | 5.32 | < 5.00 | 5.21 | 6.00 | Cn1cc(-c2ccc3cnc(NC(=O)c4ccc5nccnc5c4)nc3c2)cn1 [Compound 1123, N-(7-(1-Methyl-1H-pyrazol-4-yl)quinazolin-2-yl)quinoxaline-6-carboxamide] | 6.5 | < 5.00 | 22 | – | – |
| 7.96 | 5.66 | 5.87 | < 5.00 | 5.35 | 6.09 | Cc1ncc(C(=O)Nc2ncc3ccc(-c4cnc(C)n4C)cc3n2)s1 [Compound 1353, N-(7-(1,2-Dimethyl-1H-imidazol-5-yl)quinazolin-2-yl)-2-methylthiazole-5-carboxamide] | 4.1 | < 5.00 | 42 | – | – |
| 8.10 | 6.38 | 5.39 | 5.50 | 6.14 | 6.75 | CC(C)OC(=O)N1CCC(n2cc(C(=O)Nc3ncc4ccc(-c5cnn(C)c5)cc4n3)cn2)CC1 [Compound 1141, Isopropyl 4-(4-((7-(1-methyl-1H-pyrazol-4-yl)quinazolin-2-yl)carbamoyl)-1H-pyrazol-1-yl)piperidine-1-carboxylate] | – | 5.86 | – | – | – |
| 8.10 | 6.13 | 6.34 | < 5.00 | 5.87 | 6.00 | CN(C)C1CCN(c2cc(C(=O)Nc3ncc4ccc(-c5cn(C)nn5)cc4n3)ccn2)CC1 [Compound 1282, 2-(4-(Dimethylamino)piperidin-1-yl)-N-(7-(1-methyl-1H-1,2,3-triazol-4-yl)quinazolin-2-yl)isonicotinamide] | 42.4 | 5.60 | – | – | – |
| 8.30 | 5.59 | 5.56 | 5.09 | 5.07 | 5.96 | Cn1cncc1-c1ccc2cnc(NC(=O)c3cccc(CN4CCCC4)c3)nc2c1 [Compound 1356, N-(7-(1-Methyl-1H-imidazol-5-yl)quinazolin-2-yl)-3-(pyrrolidin-1-ylmethyl)benzamide] | – | 5.44 | – | – | – |
